Experimental data taken from patent US11542492B2 (Celgene CAR LLC, priority 2009, dated 2023).
pIC50, pKi: −log10 of the molar value.

Assays:
[1] = test system: HCT116; test: HCT116-WB assay; format: cell-based; conditions: Homo sapiens, HCT-116; read-out: HCT116-WB Inhibition Designation
[2] = target: T1, p120γ (PI3Kγ) (Homo sapiens, UniProt P48736); test: HTRF assay, p120γ; format: biochemical; conditions: PI3Kγ; read-out: PI3Kγ HTRF IC50 Inhibition Designation
T1 construct: purchased BPS Bioscience 40625
Summary of the method: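 End-point competition-binding HTRF with 1-4 nM enzyme and 10 μM di-C8-PIP2, pre-incubated with compound 30 min at 25° C, then 50 μM ATP for 15-30 min at 25° C. HTRF ratio (665/620 nm) gave % inhibition; IC50 from variable-slope log-dose fit.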

[3] = target: T2, p110α/p85α (PI3Kα) (Homo sapiens, UniProt P42336); test: HTRF assay, p110α/p85α; format: biochemical; conditions: read-out: PI3Kα-HTRF-IC50 nM Inhibition Designation
T2 construct: purchased BPS Bioscience or Millipore 40620 (BPS Bioscience) or 14-602 (Millipore)
Procedure: HTRF Assay Protocol for Potency Assessment Against the Active Form of p110α/p85α:
(§1) The mechanics of the assay platform are best described by the vendor (Millipore, Billerica, Mass.) on their website at the following URL: http://www.millipore.com/coa/tech1/74jt4z.
(§2) Briefly, Stop solution (Stop A, #33-007 and Stop B, #33-009; 3:1 ratio) and Detection Mix (DMC, #33-015 with DMA, #33-011 and DMB, #33-013; 18:1:1 ratio) were prepared as recommended by the manufacturer ˜2 hrs prior to use. […] Lipid kinase reactions were started with the addition of 5 μL of ATP solution, mixed for 15 sec on a rotary plate shaker and incubated for 15-30 minutes at 25° C. Next, reactions were stopped with a 5 μL addition of Stop solution followed by a 5 μL volume of Detection Mix. […] At the conclusion of each assay, the HTRF ratio from fluorescence emission values for each well was calculated and % Inhibition determined from averaged controls wells. % Inhibition values for each compound re then plotted against inhibitor concentration to estimate IC50 from log [Inhibitor] vs Response, Variable Slope model in GraphPad Prism from GraphPad Software (San Diego, Calif.).

[4] = target: T3, recombinant human cIAP-1 (Homo sapiens, UniProt Q13490); test: Fluorescence polarization competition binding assay, cIAP-1; conditions: c-IAP-1, 3 h
T3 construct: purchased R&D Systems 818-IA
Procedure: (§3) Homogeneous, Fluorescence Polarization, Competition Binding Assay Protocol for Affinity Assessment of Compound Binding to XIAP, cIAP-1 and ML-IAPβ BIR3 Domains
(§4) 1× stocks of recombinant human XIAP; BIR3 domain (895-XB), recombinant human cIAP-1 (818-IA) or recombinant human ML-IAPβ (818-IA) from R&D Systems and Fluorescence Polarization (FP) assay tracer (Atto-647 tagged IAP inhibitor probe compound) were prepared in assay buffer consisting of 25 mM Tris-HCL, pH 7.5 (Sigma), 10 mM […] (Sigma), 1 mM DTT (Fluka) and 0.005% TritonX-100 (Pierce). While IAP protein and tracer equilibrated at ambient temp in the dark (30-60 min), 100× stocks of test compound were prepared in 50% DMSO:H2O, serially diluted and spotted (0.5 µL/well) in duplicate wells of a 384-well, flat bottom, polypropylene, black assay plate (Greiner #781209). […] Competition binding between test compounds and assay tracer was initiated by the addition of 50 µL/well of pre-equilibrated IAP protein and assay tracer. Displacement of the assay tracer was measured in a Synergy plate reader from BioTek (Winooski, Vt.) at λex620/λem680 through a 660 nm half-sized dicroich mirror and S/P polarizing filters every 30 min for 3 hr. (See Huang, X., Journal of Biomolecular Screening 8, 2003). The resulting compound dose response data were fit to a one-site binding Ki model in GraphPad Prism from GraphPad Software (San Diego, Calif.).

[5] = target: T4, recombinant human ML-IAPβ (Homo sapiens, UniProt Q96CA5); test: Fluorescence polarization competition binding assay, ML-IAPβ; conditions: ML-IAP, 2 h
T4 construct: purchased R&D Systems 818-IA
T4 sequence (Q96CA5 1-280 isoform Q96CA5-2): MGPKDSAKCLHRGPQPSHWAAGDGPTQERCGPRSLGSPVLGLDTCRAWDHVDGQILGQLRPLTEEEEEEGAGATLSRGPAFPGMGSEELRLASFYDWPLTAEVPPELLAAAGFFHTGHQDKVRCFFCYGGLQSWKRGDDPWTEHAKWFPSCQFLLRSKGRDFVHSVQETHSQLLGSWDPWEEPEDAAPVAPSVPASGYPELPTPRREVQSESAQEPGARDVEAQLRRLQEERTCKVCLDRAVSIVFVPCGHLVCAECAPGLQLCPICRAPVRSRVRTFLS
Procedure: as §3, §4

[6] = target: T5, p110β/p85α (PI3Kβ) (Homo sapiens, UniProt P42338); test: HTRF assay, p110β/p85α; format: biochemical; conditions: read-out: PI3Kβ HTRF IC50 Inhibition Designation
T5 construct: purchased Millipore 14-603
Procedure: as §1, §2

[7] = target: PI3Kγ (Homo sapiens, UniProt P48736); test: MALDI MS of intact PI3Kγ incubated with compound; format: binding; conditions: 1 hr, 10-fold excess, 37° C.
Procedure: Intact PI3Kγ was incubated for 1 hr at a 10-fold excess of compound XXII-33 to protein at 37° C. 5 μL aliquots of the samples were diluted with 10 μL of 0.1% TFA prior to micro C4 Ziptipping directly onto the MALDI target plate using sinapinic acid as the desorption matrix (10 mg/mL in 0.1% TFA:Acetonitrile 50:50).

[8] = target: T6, XIAP (Homo sapiens, UniProt P98170); test: MALDI mass spectrometric analysis of intact XIAP incubated with compound; format: binding; conditions: 18 hr, 10-fold excess of compound to protein
T6 construct: recombinant human XIAP; BIR3 domain (895-XB)
Procedure: Intact XIAP was incubated for 18 hr at a 10-fold excess of VII-1 to protein. 3ul aliquots of the samples were diluted with 10 ul of 0.1% TFA prior to micro C4 ZipTipping directly onto the MALDI target using Sinapinic acid as the desorption matrix (10 mg/mL in 0.1% TFA:Acetonitrile 50:50).
Intact XIAP was incubated for 18 hr at a 10-fold excess of VII-21 to protein. 3 ul aliquots of the samples were diluted with 10 ul of 0.1% TFA prior to micro C4 ZipTipping directly onto the MALDI target using Sinapinic acid as the desorption matrix (10 mg/mL in 0.1% TFA:Acetonitrile 50:50).

[9] = target: T7, recombinant human XIAP; BIR3 domain (Homo sapiens, UniProt P98170); test: Fluorescence polarization competition binding assay, XIAP BIR3 domain
T7 construct: recombinant human XIAP; BIR3 domain (895-XB); purchased R&D Systems 895-XB
Procedure: as §3, §4

[10] = target: T8, NS3/4A C159S (Hepatitis C virus genotype 1b, UniProt Q9WMX2, C1185S); test: Lysine modification using biotinylated covalent probe in cell lysate; format: binding, HCV; conditions: FIG. 10, 1 μM probe, 1h
T8 construct: expressed in transfected cells
From the text: The pCI-Neo-FLAG-NS3/4a-WT plasmid was constructed by amplifying the NS3 and 4a sequence from the pFK-I389-luc-ubi-neo-NS3-3′ET vector using Accuprime Pfx (Invitrogen) according to manufacturer's instructions and with primers that added an NheI site and FLAG epitope tag to the 5′ end and an XbaI site to the 3′ end.
The resulting PCR product was then digested with NheI and XbaI and ligated into the same sites of the pCI-Neo vector (Invitrogen). The WT construct was then used as a template for site-directed mutagenesis using the Quickchange II Site-Directed Mutagenesis kit […] and primers containing the K136R or C159S mutations (below).
Lysates were treated with 1 μM of biotinylated covalent probe, XVI-27, for 1h and immunoprecipitated with anti-NS3 antibody (mouse). Immunoblots were probed with streptavidin and anti-NS3 antibody (goat). Successful modification by the covalent probe was assessed and quantified relative to WT NS3.

Row | Compound | pIC50 [1] | pIC50 [2] | IC50 [3] [nM] | pKi [4] | pKi [5] | also measured
1 | O=C1CC[C@H](C(=O)N2CC=C(c3cc4nc(-c5cccc(O)c5)nc(N5CCOCC5)c4s3)CC2)O1 [XXII-2] | 6.00 to 7.00 | 6.00 to 7.00 | 10 to 100 |  |  | 
2 | CN[C@@H](C)C(=O)N[C@H]1CCCC[C@H]2CC[C@@H](C(=O)NCc3cccc(C(=O)N4CC5CCC4C(=O)O5)c3)N2C1=O (stereo partly shown) [VII-43] |  |  |  | 5.00 to 6.00 | < 5.00 | 
3 | Nc1ncc(-c2nc(N3CCOCC3)c3sc(CN4CCN(C(=O)C5CC(=O)CC(=O)C5)CC4)cc3n2)cn1 [XXII-33, 5-(4-((2-(2-aminopyrimidin-5-yl)-4-morpholinothieno[3,2-d]pyrimidin-6-yl)methyl)piperazine-1-carbonyl)cyclohexane-1,3-dione] |  | 6.00 to 7.00 |  |  |  | pIC50 [6]: 6.00 to 7.00; mass shift of PI3Kγ [7]: 492 Da; mass shift of PI3Kγ as percent [7]: 90%; modification of PI3Kγ [7]: complete modification
4 | CN[C@@H](C)C(=O)N[C@H]1CCCC[C@H]2CC[C@@H](C(=O)NCc3cccc(NC(=O)[C@H]4CCC(=O)O4)c3)N2C1=O [VII-21] |  |  |  | 6.00 to 7.00 | 5.00 to 6.00 | mass shift of XIAP [8]: 522 Da; modification of XIAP [8]: complete modification
5 | C=CS(=O)(=O)Nc1cccc(CNC(=O)[C@@H]2CC[C@@H]3CCCC[C@H](NC(=O)[C@H](C)NC)C(=O)N32)c1 [VII-23] |  |  |  | > 8.00 | 7.00 to 8.00 | 
6 | CC(C)Oc1c(N(C)Cc2cc3nc(-c4cccc(O)c4)nc(N4CCOCC4)c3s2)c(=O)c1=O [XXII-11] | 7.00 to 8.00 | 6.00 to 7.00 | 10 to 100 |  |  | 
7 | CN(Cc1cc2nc(-c3cccc(O)c3)nc(N3CCOCC3)c2s1)C(=O)[C@H]1CCC(=O)O1 [XXII-7] | 7.00 to 8.00 | 6.00 to 7.00 | 100 to 1000 |  |  | 
8 | C=CC(=O)Nc1cccc(CNC(=O)[C@@H]2CC[C@@H]3CCCC[C@H](NC(=O)[C@H](C)N(C)C(=O)OC(C)(C)C)C(=O)N32)c1 [VII-2] |  |  |  | < 5.00 | < 5.00 | Ki XIAP [9]: > 10,000 nM; Ki (XIAP) Inhibition Designation ([9]; XIAP): E (IC50≥10,000 nM)
9 | CN[C@@H](C)C(=O)N[C@H]1CCCC[C@H]2CC[C@@H](C(=O)NCc3cccc(COC(=O)CC(C)=O)c3)N2C1=O [VII-29] |  |  |  | 5.00 to 6.00 | 7.00 to 8.00 | 
10 | CC1(C)Cc2nc(N3CCOc4ccc(-c5ccc(C(=O)N6C[C@@H]7C[C@H]6C(=O)O7)cc5)cc43)sc2C(=O)N1 [XXIII-8, (1S,4S)-5-(4-(4-(6,6-dimethyl-4-oxo-4,5,6,7-tetrahydrothiazolo[5,4-c]pyridin-2-yl)-3,4-dihydro-2H-benzo[b][1,4]oxazin-6-yl)benzoyl)-2-oxa-5-azabicyclo[2.2.1]heptan-3-one] | 5.00 to 6.00 | 6.00 to 7.00 | 100 to 1000 |  |  | 
11 | C=CC(=O)N1CCN(CC#Cc2cc3nc(-c4cccc(O)c4)nc(N4CCOCC4)c3s2)CC1 [XXII-3] | 6.00 to 7.00 | 6.00 to 7.00 |  |  |  | 
12 | C=CC(=O)Nc1cccc(CNC(=O)[C@@H]2CC[C@@H]3CCCC[C@H](NC(=O)[C@H](C)NC)C(=O)N32)c1 [VII-1, (3S,6S,10aS)-N-(3-acrylamidobenzyl)-6-((S)-2-(methylamino)propanamido)-5-oxodecahydropyrrolo[1,2-a]azocine-3-carboxamide] |  |  |  | 6.00 to 7.00 | 6.00 to 7.00 | mass shift of XIAP [8]: 417 Da; modification of XIAP [8]: complete modification; Ki XIAP [9]: 161 nM
13 | CN(Cc1cc2nc(-c3cccc(O)c3)nc(N3CCOCC3)c2s1)C(=O)[C@@H]1CCC(=O)O1 [XXII-6] | 7.00 to 8.00 | 6.00 to 7.00 | 10 to 100 |  |  | 
14 | CN[C@@H](C)C(=O)N[C@H]1CCCC[C@H]2CC[C@@H](C(=O)N[C@@H]3CCCc4c(NC(=O)C5CCC(=O)O5)cccc43)N2C1=O (stereo partly shown) [VII-30] |  |  |  | 7.00 to 8.00 | 7.00 to 8.00 | 
15 | C=C[C@H]1C[C@@]1(NC(=O)[C@@H]1CC(Oc2nccc3cc(OC)ccc23)CN1C(=O)[C@H](CCC(=O)N1C[C@@H]2C[C@H]1C(=O)O2)NC(=O)CCCC(=O)NCCCOCCOCCOCCCNC(=O)CCCC[C@@H]1SC[C@@H]2NC(=O)N[C@@H]21)C(=O)NS(=O)(=O)C1CC1 (stereo partly drawn) [XVI-27, N1-((2S)-1-((2S)-2-((1S,2R)-1-(cyclopropylsulfonylcarbamoyl)-2-vinylcyclopropylcarbamoyl)-4-(6-methoxyisoquinolin-1-yloxy)pyrrolidin-1-yl)-1,5-dioxo-5-((1S,4S)-3-oxo-2-oxa-5-azabicyclo[2.2.1]heptan-5-yl)pentan-2-yl)-N5-(15-oxo-19-((3aS,4S,6aR)-2-oxohexahydro-1H-thieno[3,4-d]imidazol-4-yl)-4,7,10-trioxa-14-azanonadecyl)glutaramide] |  |  |  |  |  | modification by covalent probe [10]: modifying NS3/4A C159S
16 | [2H]C([2H])=C([2H])C(=O)Nc1cccc(CNC(=O)[C@@H]2CC[C@@H]3CCCC[C@H](NC(=O)[C@H](C)NC)C(=O)N32)c1 [VII-16] |  |  |  | 6.00 to 7.00 | 6.00 to 7.00 | 
